“And” between values parts separate entries of the source, which are not always exact repeats. Equal entries are not always repeated. Structures can show the parent of a compound that is named as a salt.
Assays:
Format in all cases: in vivo, human
[1] = Single ascending dose study (Part 1): plasma MMF pharmacokinetics; details: oral dosing, 49 to 980 mg
Procedure: (§1) A randomized, double-blind, placebo-controlled, sequential, single ascending dose study was conducted in healthy subjects to investigate the safety, tolerability and pharmacokinetics of capsules containing delayed release (DR) mini-tablets of Compound 1 from Example 2.1 (“Compound 1 DR capsules”). Up to 7 cohorts were included with 8 subjects in each cohort. In each cohort, 6 subjects received Compound 1 DR capsules and 2 subjects were treated with placebo in fasted condition. Compound 1 doses investigated were 49 mg (Cohort 1), 105 mg (Cohort 2), 210 mg (Cohort 3), 420 mg (Cohort 4), 630 mg (Cohort 5), 840 mg (Cohort 6), and 980 mg (Cohort 7) (all weights being mg of prodrug).
(§2) Blood samples were collected from all subjects prior to dosing and at 0.25, 0.50, 1, 1.50, 2, 2.50, 3, 4, 6, 8, 10, 12, and 24 hours after dosing. Plasma obtained from blood samples were analyzed for Compound 1, MMF and another metabolite using validated LC-MS/MS method. The plasma concentration-time profiles were analyzed via Non-Compartmental analysis (NCA) using Phoenix WinNonLin, version 6.3.

[2] = Single ascending dose study (Part 1): safety and tolerability, adverse events
Procedure: as §1

[3] = Phase I 2-period cross-over study (Part 2): plasma MMF pharmacokinetics; details: 420 mg Compound 1 DR versus 240 mg DMF
Procedure: (§3) (The DMF oral dosage form used in this study was […]®, (Biogen Idec, Inc Cambridge, MA, USA)). A total of 16 subjects were enrolled and randomized to a treatment sequence.
Each dosing period was separated by a wash-out period of 7 days.
as §2

[4] = Phase I 2-period cross-over study (Part 2): safety and tolerability, adverse events; details: DMF 240 mg or Compound 1 DR 420 mg
Source text: as §3
Each dosing period was separated by a wash-out period of 7 days. […]

COC(=O)/C=C/C(=O)OCCN1C(=O)CCC1=O [Compound 1, 2-(2,5-dioxopyrrolidin-1-yl)ethyl methyl fumarate]
conversion to metabolite MMF in plasma [1]: rapidly converted | Subjects with Abdominal discomfort ([2]; 49 mg, N = 6): 0 n (%) | Subjects with Abdominal pain ([2]; 49 mg, N = 6): 0 n (%) | Subjects with Diarrhoea ([2]; 49 mg, N = 6): 0 n (%) | Subjects with Flatulence ([2]; 49 mg, N = 6): 0 n (%) | Subjects with Flushing ([2]; 49 mg, N = 6): 1 (16.7) n (%) | Subjects with Frequent bowel movements ([2]; 49 mg, N = 6): 1 (16.7) n (%) | Subjects with Gastrointestinal disorders (SOC) ([2]; 49 mg, N = 6): 1 (16.7) n (%) | Subjects with Nausea ([2]; 49 mg, N = 6): 0 n (%) | Subjects with Vascular disorders (SOC) ([2]; 49 mg, N = 6): 1 (16.7) n (%) | Subjects with Abdominal discomfort ([2]; 105 mg, N = 6): 0 n (%) | Subjects with Abdominal pain ([2]; 105 mg, N = 6): 0 n (%) | Subjects with Diarrhoea ([2]; 105 mg, N = 6): 0 n (%) | Subjects with Flatulence ([2]; 105 mg, N = 6): 0 n (%) | Subjects with Flushing ([2]; 105 mg, N = 6): 0 n (%) | Subjects with Frequent bowel movements ([2]; 105 mg, N = 6): 0 n (%) | Subjects with Gastrointestinal disorders (SOC) ([2]; 105 mg, N = 6): 0 n (%) | Subjects with Nausea ([2]; 105 mg, N = 6): 0 n (%) | Subjects with Vascular disorders (SOC) ([2]; 105 mg, N = 6): 0 n (%) | Subjects with Abdominal discomfort ([2]; 210 mg, N = 6): 1 (16.7) n (%) | Subjects with Abdominal pain ([2]; 210 mg, N = 6): 0 n (%) | Subjects with Diarrhoea ([2]; 210 mg, N = 6): 0 n (%) | Subjects with Flatulence ([2]; 210 mg, N = 6): 0 n (%) | Subjects with Flushing ([2]; 210 mg, N = 6): 2 (33.3) n (%) | Subjects with Frequent bowel movements ([2]; 210 mg, N = 6): 0 n (%) | Subjects with Gastrointestinal disorders (SOC) ([2]; 210 mg, N = 6): 1 (16.7) n (%) | Subjects with Nausea ([2]; 210 mg, N = 6): 0 n (%) | Subjects with Vascular disorders (SOC) ([2]; 210 mg, N = 6): 2 (33.3) n (%) | Subjects with Abdominal discomfort ([2]; 420 mg, N = 6): 0 n (%) | Subjects with Abdominal pain ([2]; 420 mg, N = 6): 0 n (%) | Subjects with Diarrhoea ([2]; 420 mg, N = 6): 0 n (%) | Subjects with Flatulence ([2]; 420 mg, N = 6): 0 n (%) | Subjects with Flushing ([2]; 420 mg, N = 6): 4 (66.7) n (%) | Subjects with Frequent bowel movements ([2]; 420 mg, N = 6): 0 n (%) | Subjects with Gastrointestinal disorders (SOC) ([2]; 420 mg, N = 6): 0 n (%) | Subjects with Nausea ([2]; 420 mg, N = 6): 0 n (%) | Subjects with Vascular disorders (SOC) ([2]; 420 mg, N = 6): 4 (66.7) n (%) | Subjects with Abdominal discomfort ([2]; 630 mg, N = 6): 0 n (%) | Subjects with Abdominal pain ([2]; 630 mg, N = 6): 0 n (%) | Subjects with Diarrhoea ([2]; 630 mg, N = 6): 1 n (%) | Subjects with Flatulence ([2]; 630 mg, N = 6): 0 n (%) | Subjects with Flushing ([2]; 630 mg, N = 6): 6 n (%) | Subjects with Frequent bowel movements ([2]; 630 mg, N = 6): 0 n (%) | Subjects with Gastrointestinal disorders (SOC) ([2]; 630 mg, N = 6): 1 n (%) | Subjects with Nausea ([2]; 630 mg, N = 6): 0 n (%) | Subjects with Vascular disorders (SOC) ([2]; 630 mg, N = 6): 6 n (%) | Subjects with Abdominal discomfort ([2]; 840 mg, N = 6): 0 n (%) | Subjects with Abdominal pain ([2]; 840 mg, N = 6): 0 n (%) | Subjects with Diarrhoea ([2]; 840 mg, N = 6): 1 (16.7) n (%) | Subjects with Flatulence ([2]; 840 mg, N = 6): 2 (33.3) n (%) | Subjects with Flushing ([2]; 840 mg, N = 6): 5 (83.3) n (%) | Subjects with Frequent bowel movements ([2]; 840 mg, N = 6): 0 n (%) | Subjects with Gastrointestinal disorders (SOC) ([2]; 840 mg, N = 6): 2 (33.3) n (%) | Subjects with Nausea ([2]; 840 mg, N = 6): 0 n (%) | Subjects with Vascular disorders (SOC) ([2]; 840 mg, N = 6): 5 (83.3) n (%) | Subjects with Abdominal discomfort ([2]; 980 mg, N = 6): 1 n (%) | Subjects with Abdominal pain ([2]; 980 mg, N = 6): 1 n (%) | Subjects with Diarrhoea ([2]; 980 mg, N = 6): 2 n (%) | Subjects with Flatulence ([2]; 980 mg, N = 6): 1 n (%) | Subjects with Flushing ([2]; 980 mg, N = 6): 6 n (%) | Subjects with Frequent bowel movements ([2]; 980 mg, N = 6): 0 n (%) | Subjects with Gastrointestinal disorders (SOC) ([2]; 980 mg, N = 6): 4 n (%) | Subjects with Nausea ([2]; 980 mg, N = 6): 2 n (%) | Subjects with Vascular disorders (SOC) ([2]; 980 mg, N = 6): 6 n (%) | tolerability during the trial ([2]; 49 to 980 mg single doses): well tolerated | Subjects with Flushing ([2]; dose levels ≥420 mg): > 50% | PK variability (% CV) compared to DMF treatment [3]: less PK variability | PK variability (% CV) compared to DMF treatment ([3]; listed as 2-(2,5-dioxopyrrolidin-1-yl)ethyl methyl fumarate): less variability | Subjects with Flushing ([4]; N = 12): 8 (66.7%) n (%) | Subjects with Gastrointestinal disorders (SOC) ([4]; N = 12): 1 (8.3%) n (%)

COC(=O)/C=C/C(=O)OC [DMF, Dimethyl fumarate]
mean onset of flushing [4]: 1.2 h | Subjects with Constipation ([4]; N = 12): 0 n (%) | Subjects with Diarrhoea ([4]; N = 12): 1 (8.3%) n (%) and 1 n (%) | Subjects with Eructation ([4]; N = 12): 1 n (%) | Subjects with Flatulence ([4]; N = 12): 1 n (%) | Subjects with Flushing ([4]; N = 12): 8 (66.7%) n (%) and 8 n (%) | Subjects with Gastrointestinal disorders (SOC) ([4]; N = 12): 5 (41.7%) n (%) and 5 n (%) | Subjects with Nausea ([4]; N = 12): 3 (25%) n (%) and 3 n (%) | Subjects with Retching ([4]; N = 12): 1 (8.3%) n (%) and 1 n (%) | Subjects with Vascular disorders (SOC) ([4]; N = 12): 8 n (%)
